Assay results taken from patent US11311524B2, “Pharmaceutical composition used for treatment of HTLV-1-associated myelopathy” (DAIICHI SANKYO COMPANY, LIMITED, priority 2017, dated 2022).
Like-named read-outs stand apart in the source and are kept apart here.

Columns and labels:
HAM patient-derived PBMC = test: Autoproliferation (3H-thymidine incorporation) of HAM patient-derived PBMC without stimulation; type: cell-based, human; conditions: for GI50: Homo sapiens, 6 days culture, 3H-thymidine; for Suppression of autoproliferation activity of HAM patient-derived PBMC: no stimulation, relative to DMSO group
Protocol: PBMC taken from 8 HAM patients were suspended in culture mediums (RPMI1640 culture medium (wako) containing 10% FBS (GIBCO)), seeded in a 96-well round-bottom plate in a ratio of 1×10^5 cells per well (3 wells were used for each concentration), and compound A or compound B was added so as to provide a final concentration of 1, 10, 100 or 1000 nM. Culture was carried out at 37° C. in 5% CO2 conditions for 6 days. The DMSO treatment group and the PSL (1 μg/mL) treatment group were used as controls. Day 6 after initiation of culture, 1 μCi ^3H-thymidine was added to each well and culture was carried out at 37° C., in 5% CO2 conditions for 16 hours. Thereafter, the cultured cells were allowed to adsorb to a glass filter (Printed Filtermat A, PerkinElmer) by a cell harvester (Tomtec MH3, PerkinElmer), dried and impregnated with solid scintillator Meltilex-A (PerkinElmer). The amount of the ^3H-thymidine incorporated in the cells was measured by use of MicroBeta (WALLAC MicroBeta TriLux 1450-021) (Yamano et al., PLoS One. 2009, 4(8): e6517). Based on the average count of ^3H-thymidine in the DMSO treatment group of HAM patients' PBMC as 100%, the relative values of the groups treated with compound A, compound B and PSL (1 μg/mL) were obtained by calculation, and then, an average value of 8 HAM patient cases was obtained. A significance test was carried out in accordance with the Friedman test of GraphPad Prism6 (MDF).
The number of patients was increased to 16 and the same experiment as above was carried out.
Effect on HAM patient-derived PBMC was checked in the same manner as in the above Example except that an EZH2 inhibitor was used in place of compounds A and B.
As the EZH2 inhibitor, GSK126 (CAS No.: 1346574-57-9) and E7438 (CAS No.: 1403254-99-8) were used. The concentration for treatment was 1, 10, 100, 1000 or 10000 nM in terms of final concentration. In the experiment, PBMC samples taken from the 8 persons before the number of cases increased in the above were used.

HCT-5 cells [1] = test: Proliferation/viability of HTLV-1 infected cell line HCT-5 (CCK-8); type: cell-based, human; conditions: for Viability of HTLV-1 infected cells vs DMSO group: HCT-5, 1 μM, up to 21 days culture; for GI50: Homo sapiens, 336 h, 14 days culture, CCK-8
Protocol: HCT-4 and HCT-5, which were HTLV-1 infected cell lines established from the cerebrospinal fluid of HAM patients, were donated from a professor, Tatsufumi Nakamura of the Nagasaki International University. HCT-4 was cultured in RPMI1640 culture medium containing 10% FBS (GIBCO), a 1% penicillin-streptomycin solution (Wako) and 100 U/mL IL-2 (Cell Science & Technology Institute, Inc.); whereas HCT-5 was cultured by using 10% FBS, 1% penicillin-streptomycin solution, 1% L-glutamine (SIGMA) and 200 U/mL IL-2. HCT-4 (3×10^6 cells) or HCT-5 (2.5×10^6 cells) were seeded in a culture medium (20 mL) in a 75 cm^2-culture flask. DMSO was added and compound A or B was added so as to provide a final concentration of 1 μM and culture was carried out at 37° C. in 5% CO2 conditions for 21 days while repeating subculture. In the subculture, a culture solution containing HCT-4 treated with DMSO so as to correspond to 3×10^6 cells, whereas a culture solution containing HCT-5 treated with DMSO so as to correspond to 2.5×10^6 cells were taken and each added to a new culture medium to obtain a final volume of 20 mL, and then, further compound A or B was added so as to obtain the same concentration as above. Day 7, 14 and 21 after initiation of culture, cells were recovered from the culture solution and the density of the cells was measured. In this manner, the effect of compound A or B on cell proliferation was examined. The density of cells was determined by seeding cultured cells in a 96-well plate in a volume of 100 μL per well, adding 10 μL of Cell counting kit-8 (CCK-8) (Dojindo Laboratories laboratory) per well, incubating the cells at 37° C. for 3 hours and measuring absorbance at 450 nm by a plate reader (iMark Microplate Reader, Biorad). The proliferation rates of cell groups treated with compound A or compound B were each calculated based on the cell group treated with DMSO as a control. Next, in a 6-well plate, HCT-4 (4.5×10^5 cells) or HCT-5 (3.75×10^5 cells) were seeded. A solution of compound A or B prepared with DMSO was serially diluted (4-fold dilution from 10000 nM was serially repeated 8 times) and added thereto. The cells were repeatedly subcultured at intervals of 3 to 4 days in a culture solution of 3 mL in total at 37° C. in 5% CO2 condition for 14 days. […] The cells cultured for 14 days in individual conditions were recovered and the density of the cells were measured. […] The density of cells was determined by seeding the cultured cells (100 μL) per well in a 96-well plate, adding 10 μL of CCK-8 per well, incubating the cells at 37° C. for 3 hours and measuring absorbance at 450 nm by a plate reader. The proliferation rate of a group treated with compound A or compound B was calculated based on the group treated with DMSO as a control.

HCT-4 cells = test: Apoptosis of HCT-4 cells (Annexin V-PE / 7-AAD, FACS); type: cell-based, human; conditions: HCT-4, 1 μM, 21 days
Protocol: (§1) In this Example, experiments were carried out using the cells cultured for 21 days in Example 5. To detect apoptotic cells in the cells cultured for 21 days by adding 1 μM of compound A or compound B, the cells were stained by use of PE Annexin V apoptosis Detection Kit I (BD) and analyzed by FACS. In this analysis, the viable cells were detected based on FSC (forward scatter)-SSC (side scatter) plots. The viable cells were analyzed by Annexin V-PE (annexin V) and 7-AAD (7-amino actinomycin D). Early apoptotic cells were detected as Annexin V (+) 7-AAD (−) cells. The results were as shown in FIG. 8 (HCT-4 cells) and FIG. 9 (HCT-5 cells).

HCT-5 cells [2] = test: Apoptosis of HCT-5 cells (Annexin V-PE / 7-AAD, FACS); type: cell-based, human; conditions: HCT-5, 1 μM, 21 days
Protocol: as §1

EZH1 = EZH1 (Homo sapiens, UniProt Q92800); conditions: from WO2015/141616; cited from earlier work
EZH1, sequence (Q92800 whole entry): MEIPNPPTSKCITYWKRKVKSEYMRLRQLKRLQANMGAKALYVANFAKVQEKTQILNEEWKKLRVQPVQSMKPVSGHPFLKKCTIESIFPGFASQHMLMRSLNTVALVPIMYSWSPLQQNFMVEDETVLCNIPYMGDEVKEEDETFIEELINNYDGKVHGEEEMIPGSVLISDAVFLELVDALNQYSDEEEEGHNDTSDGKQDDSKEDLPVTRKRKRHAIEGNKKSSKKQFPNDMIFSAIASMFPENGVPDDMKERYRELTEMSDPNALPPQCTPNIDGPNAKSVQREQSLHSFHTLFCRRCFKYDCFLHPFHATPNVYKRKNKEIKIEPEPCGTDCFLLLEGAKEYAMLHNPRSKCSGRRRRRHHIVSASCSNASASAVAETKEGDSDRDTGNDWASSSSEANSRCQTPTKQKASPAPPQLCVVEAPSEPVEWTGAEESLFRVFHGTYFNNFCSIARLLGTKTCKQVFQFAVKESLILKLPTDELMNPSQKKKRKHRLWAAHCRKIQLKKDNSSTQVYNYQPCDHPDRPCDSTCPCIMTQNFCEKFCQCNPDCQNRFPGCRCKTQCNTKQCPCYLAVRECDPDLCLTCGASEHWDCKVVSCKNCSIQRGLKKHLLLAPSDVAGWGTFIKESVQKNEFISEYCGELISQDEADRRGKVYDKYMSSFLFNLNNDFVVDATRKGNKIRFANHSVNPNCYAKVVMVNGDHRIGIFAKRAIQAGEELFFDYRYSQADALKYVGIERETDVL
EZH1, sequence (O75530 whole entry partner): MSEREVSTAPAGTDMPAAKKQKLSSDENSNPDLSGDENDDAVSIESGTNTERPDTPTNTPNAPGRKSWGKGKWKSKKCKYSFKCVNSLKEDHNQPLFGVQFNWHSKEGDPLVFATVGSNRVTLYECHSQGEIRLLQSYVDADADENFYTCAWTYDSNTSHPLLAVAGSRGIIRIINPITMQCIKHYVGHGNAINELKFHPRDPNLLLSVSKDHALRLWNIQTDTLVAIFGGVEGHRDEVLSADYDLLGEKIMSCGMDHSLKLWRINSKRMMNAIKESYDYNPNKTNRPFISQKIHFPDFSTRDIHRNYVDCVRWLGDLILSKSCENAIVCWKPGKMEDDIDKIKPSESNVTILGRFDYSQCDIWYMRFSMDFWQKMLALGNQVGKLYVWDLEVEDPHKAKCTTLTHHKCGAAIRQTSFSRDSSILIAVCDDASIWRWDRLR
EZH1, sequence (Q15022 whole entry partner): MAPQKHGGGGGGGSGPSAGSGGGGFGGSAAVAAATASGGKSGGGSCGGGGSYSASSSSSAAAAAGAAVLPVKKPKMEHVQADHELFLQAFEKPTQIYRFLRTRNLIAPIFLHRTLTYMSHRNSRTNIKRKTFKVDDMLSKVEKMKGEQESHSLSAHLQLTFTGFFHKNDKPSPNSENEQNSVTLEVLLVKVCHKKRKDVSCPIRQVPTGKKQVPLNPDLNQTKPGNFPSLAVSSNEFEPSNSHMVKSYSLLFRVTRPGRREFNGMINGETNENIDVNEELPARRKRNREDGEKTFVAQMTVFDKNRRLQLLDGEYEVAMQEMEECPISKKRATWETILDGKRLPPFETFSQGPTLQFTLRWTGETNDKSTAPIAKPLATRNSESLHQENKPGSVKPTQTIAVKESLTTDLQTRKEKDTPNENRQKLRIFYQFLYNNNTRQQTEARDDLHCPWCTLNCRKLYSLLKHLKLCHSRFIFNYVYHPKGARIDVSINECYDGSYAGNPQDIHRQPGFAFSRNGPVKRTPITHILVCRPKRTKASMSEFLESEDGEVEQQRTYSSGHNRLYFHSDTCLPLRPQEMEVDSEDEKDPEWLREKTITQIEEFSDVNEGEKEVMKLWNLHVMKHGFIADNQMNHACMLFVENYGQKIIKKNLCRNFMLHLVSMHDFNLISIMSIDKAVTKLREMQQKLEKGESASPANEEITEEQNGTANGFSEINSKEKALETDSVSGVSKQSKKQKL
EZH1, sequence (Q09028 whole entry partner): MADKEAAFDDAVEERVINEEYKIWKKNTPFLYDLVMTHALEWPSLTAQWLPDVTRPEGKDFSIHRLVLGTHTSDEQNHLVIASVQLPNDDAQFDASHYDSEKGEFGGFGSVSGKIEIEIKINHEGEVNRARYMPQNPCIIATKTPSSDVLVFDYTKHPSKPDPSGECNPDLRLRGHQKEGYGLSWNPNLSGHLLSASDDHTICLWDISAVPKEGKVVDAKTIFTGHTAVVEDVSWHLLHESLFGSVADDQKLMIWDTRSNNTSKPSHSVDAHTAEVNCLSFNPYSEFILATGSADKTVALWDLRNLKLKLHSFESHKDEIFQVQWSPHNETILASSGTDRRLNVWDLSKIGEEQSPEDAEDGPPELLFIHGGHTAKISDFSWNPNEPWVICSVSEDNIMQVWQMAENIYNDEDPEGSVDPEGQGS

[3] = PBMC of 8 HAM patients, read-out: GI50, autoproliferation activity of HAM patient-derived PBMC
[4] = PBMC of 16 HAM patients, read-out: GI50, spontaneous proliferation activity of HAM patient-derived PBMC

| Structure (SMILES) | GI50 (HAM patient-derived PBMC; [3]) [nM] | GI50 (HAM patient-derived PBMC; [4]) [nM] | Suppression of autoproliferation activity of HAM patient-derived PBMC (HAM patient-derived PBMC) | Viability of HTLV-1 infected cells vs DMSO group (HCT-5 cells [1]) | GI50 (HCT-5 cells [1]) [nM] | Number of early apoptotic cells (Annexin V (+) 7-AAD (−)) (HCT-4 cells) | Number of viable cells (FSC-SSC) (HCT-4 cells) | Number of early apoptotic cells (Annexin V (+) 7-AAD (−)) (HCT-5 cells [2]) | Number of viable cells (FSC-SSC) (HCT-5 cells [2]) | Inhibition of enzyme activity of EZH1 (EZH1) |
| --- | --- | --- | --- | --- | --- | --- | --- | --- | --- | --- |
| Cc1cc(C)c(CNC(=O)c2cc(Cl)c3c(c2C)O[C@@](C)([C@H]2CC[C@H](N(C)C)CC2)O3)c(=O)[nH]1 [compound B, (2R)-7-chloro-2-[trans-4-(dimethylamino)cyclohexyl]-N-[(4,6-dimethyl-2-oxo-1,2-dihydropyridin-3-yl)methyl]-2,4-dimethyl-1,3-benzodioxole-5-carboxamide] | 33.9 | 25.9 | suppressed autoproliferation activity of PBMC in all the eight HAM patient cases, in a concentration-dependent manner | significantly reduce the viability | 90.6 | the number of early apoptotic cells increased | the number of viable cells decreases | the number of early apoptotic cells increased | the number of viable cells decreases | inhibit |
| Cc1cc(C)c(CNC(=O)c2cc(Br)c3c(c2C)O[C@@](C)([C@H]2CC[C@H](N(C)C)CC2)O3)c(=O)[nH]1 [compound A, (2R)-7-bromo-2-[trans-4-(dimethylamino)cyclohexyl]-N-[(4,6-dimethyl-2-oxo-1,2-dihydropyridin-3-yl)methyl]-2,4-dimethyl-1,3-benzodioxole-5-carboxamide] | 73 | 45.6 | suppressed autoproliferation activity of PBMC in all the eight HAM patient cases, in a concentration-dependent manner | significantly reduce the viability | 185 | the number of early apoptotic cells increased | the number of viable cells decreases | the number of early apoptotic cells increased | the number of viable cells decreases | inhibit |
